# Source: patent publication US6996429B2, “Apparatus and method for detecting flinch response to nociceptive agents” (Regents of the Univeristy of California, San Diego, priority 2001, dated 2006)
# Entries after “also recorded” stand apart in the source; their conditions may differ. Read-outs that look alike come from different tables or passages of the source.
# Legend:
# [1] = test system: rat hind paw; details: for Cumulative flinching behavior (Mean ± SD) Phase I / Cumulative flinching behavior (Mean ± SD) Phase II / Cumulative flinching behavior (Mean ± SD) Phase IIA / Cumulative flinching behavior (Mean ± SD) Phase IIB: N 12
# [2] = test system: formalin induced flinching in the rat; experiment: Effects of systemic and spinal drugs on formalin evoked flinching behavior (automated formalin test); assay type: in vivo
# Protocol: To examine the effects of a drug on flinching behavior, rats received intraperitoneal or intrathecal injections of the drug. Intraperitoneal injections were delivered in volumes of 0.5 ml/kg.
# Solutions were prepared fresh daily.
# The percent inhibition is computed by dividing the response of each animal in a given group by the respective vehicle control group and multiplying by 100.
# 5. Test for intrathecal and intraperitoneal drugs on flinch behavior. […] Dose response curves of each agent were generated to relate drug effect to paw flinch and for comparison with previously reported data.
# [3] = Formalin, 0.5% vs. Formalin, 2.5%
# [4] = No Injection vs. Formalin, 2.5%
structure (smiles),measurement,setting,value
C=O [Formalin],flinching behavior versus formalin concentration,"[1]; 0.5%/50 μL to 5.0%/50 μL, all phases, compared to saline, 1-way ANOVA p<0.002",concentration-related increase in flinching behavior
same,peak flinch rate Phase I,"[1]; 100 male Sprague Dawly rats, Phase I",~50 flinches/min
same,peak flinch rate Phase II,"[1]; 100 male Sprague Dawly rats, Phase II",~37 flinches/min
same,mean cumulative flinches (±SEM) Phase I,"[1]; 100 male rats, Phase I (0–9 min)",203±9
same,mean cumulative flinches (±SEM) Phase II,"[1]; 100 male rats, Phase II",1058±39
same,mean cumulative flinches (±SEM) Phase IIA,"[1]; 100 male rats, Phase IIA (10–40 min)",792±27
same,mean cumulative flinches (±SEM) Phase IIB,"[1]; 100 male rats, Phase IIB (41–60 min)",266±16
same,Post hoc group comparison Phase I,"[1]; Formalin, 0.5% vs. Formalin, 2.5%, Phase I","S (S = Significant difference between groups, p < 0.05, Tukey/Kramer post hoc test.)"
same,Post hoc group comparison Phase II,"[1]; Formalin, 0.5% vs. Formalin, 2.5%, Phase II","S (S = Significant difference between groups, p < 0.05, Tukey/Kramer post hoc test.)"
same,Post hoc group comparison Phase IIA,[1]; [3],"S (S = Significant difference between groups, p < 0.05, Tukey/Kramer post hoc test.)"
same,Post hoc group comparison Phase IIB,[1]; [3],"S (S = Significant difference between groups, p < 0.05, Tukey/Kramer post hoc test.)"
same,Post hoc group comparison Phase I,"[1]; Formalin, 0.5% vs. Formalin, 5.0%, Phase I","S (S = Significant difference between groups, p < 0.05, Tukey/Kramer post hoc test.)"
same,Post hoc group comparison Phase II,"[1]; Formalin, 0.5% vs. Formalin, 5.0%, Phase II","S (S = Significant difference between groups, p < 0.05, Tukey/Kramer post hoc test.)"
same,Post hoc group comparison Phase IIA,"[1]; Formalin, 0.5% vs. Formalin, 5.0%","S (S = Significant difference between groups, p < 0.05, Tukey/Kramer post hoc test.)"
same,Cumulative flinching behavior (Mean ± SD) Phase I,"[1]; Formalin, 0.5%, Phase I",127 ± 66
same,Cumulative flinching behavior (Mean ± SD) Phase II,"[1]; Formalin, 0.5%, Phase II",400 ± 185
same,Cumulative flinching behavior (Mean ± SD) Phase IIA,"[1]; Formalin, 0.5%",301 ± 169
same,Cumulative flinching behavior (Mean ± SD) Phase IIB,"[1]; Formalin, 0.5%",100 ± 79
same,Post hoc group comparison Phase II,"[1]; Formalin, 1.0% vs. Formalin, 2.5%, Phase II","S (S = Significant difference between groups, p < 0.05, Tukey/Kramer post hoc test.)"
same,Cumulative flinching behavior (Mean ± SD) Phase I,"[1]; Formalin, 1.0%, Phase I",171 ± 55
same,Cumulative flinching behavior (Mean ± SD) Phase II,"[1]; Formalin, 1.0%, Phase II",613 ± 265
same,Cumulative flinching behavior (Mean ± SD) Phase IIA,"[1]; Formalin, 1.0%",495 ± 211
same,Cumulative flinching behavior (Mean ± SD) Phase IIB,"[1]; Formalin, 1.0%",118 ± 100
same,Cumulative flinching behavior (Mean ± SD) Phase I,"[1]; Formalin, 2.5%, Phase I",214 ± 75
same,Cumulative flinching behavior (Mean ± SD) Phase II,"[1]; Formalin, 2.5%, Phase II",898 ± 266
same,Cumulative flinching behavior (Mean ± SD) Phase IIA,"[1]; Formalin, 2.5%",662 ± 210
same,Cumulative flinching behavior (Mean ± SD) Phase IIB,"[1]; Formalin, 2.5%",236 ± 148
same,Cumulative flinching behavior (Mean ± SD) Phase I,"[1]; Formalin, 5.0%, Phase I",230 ± 84
same,Cumulative flinching behavior (Mean ± SD) Phase II,"[1]; Formalin, 5.0%, Phase II",811 ± 194
same,Cumulative flinching behavior (Mean ± SD) Phase IIA,"[1]; Formalin, 5.0%",659 ± 131
same,Cumulative flinching behavior (Mean ± SD) Phase IIB,"[1]; Formalin, 5.0%",152 ± 88
same,Post hoc group comparison Phase II,"[1]; No Injection vs. Formalin, 1.0%, Phase II","S (S = Significant difference between groups, p < 0.05, Tukey/Kramer post hoc test.)"
same,Post hoc group comparison Phase IIA,"[1]; No Injection vs. Formalin, 1.0%","S (S = Significant difference between groups, p < 0.05, Tukey/Kramer post hoc test.)"
same,Post hoc group comparison Phase I,"[1]; No Injection vs. Formalin, 2.5%, Phase I","S (S = Significant difference between groups, p < 0.05, Tukey/Kramer post hoc test.)"
same,Post hoc group comparison Phase II,"[1]; No Injection vs. Formalin, 2.5%, Phase II","S (S = Significant difference between groups, p < 0.05, Tukey/Kramer post hoc test.)"
same,Post hoc group comparison Phase IIA,[1]; [4],"S (S = Significant difference between groups, p < 0.05, Tukey/Kramer post hoc test.)"
same,Post hoc group comparison Phase IIB,[1]; [4],"S (S = Significant difference between groups, p < 0.05, Tukey/Kramer post hoc test.)"
same,Post hoc group comparison Phase I,"[1]; No Injection vs. Formalin, 5.0%, Phase I","S (S = Significant difference between groups, p < 0.05, Tukey/Kramer post hoc test.)"
same,Post hoc group comparison Phase II,"[1]; No Injection vs. Formalin, 5.0%, Phase II","S (S = Significant difference between groups, p < 0.05, Tukey/Kramer post hoc test.)"
same,Post hoc group comparison Phase IIA,"[1]; No Injection vs. Formalin, 5.0%","S (S = Significant difference between groups, p < 0.05, Tukey/Kramer post hoc test.)"
same,Post hoc group comparison Phase I,"[1]; Saline vs. Formalin, 1.0%, Phase I","S (S = Significant difference between groups, p < 0.05, Tukey/Kramer post hoc test.)"
same,Post hoc group comparison Phase II,"[1]; Saline vs. Formalin, 1.0%, Phase II","S (S = Significant difference between groups, p < 0.05, Tukey/Kramer post hoc test.)"
same,Post hoc group comparison Phase I,"[1]; Saline vs. Formalin, 2.5%, Phase I","S (S = Significant difference between groups, p < 0.05, Tukey/Kramer post hoc test.)"
same,Post hoc group comparison Phase II,"[1]; Saline vs. Formalin, 2.5%, Phase II","S (S = Significant difference between groups, p < 0.05, Tukey/Kramer post hoc test.)"
same,Post hoc group comparison Phase IIA,"[1]; Saline vs. Formalin, 2.5%","S (S = Significant difference between groups, p < 0.05, Tukey/Kramer post hoc test.)"
same,Post hoc group comparison Phase IIB,"[1]; Saline vs. Formalin, 2.5%","S (S = Significant difference between groups, p < 0.05, Tukey/Kramer post hoc test.)"
same,Post hoc group comparison Phase I,"[1]; Saline vs. Formalin, 5.0%, Phase I","S (S = Significant difference between groups, p < 0.05, Tukey/Kramer post hoc test.)"
same,Post hoc group comparison Phase II,"[1]; Saline vs. Formalin, 5.0%, Phase II","S (S = Significant difference between groups, p < 0.05, Tukey/Kramer post hoc test.)"
same,Post hoc group comparison Phase IIA,"[1]; Saline vs. Formalin, 5.0%","S (S = Significant difference between groups, p < 0.05, Tukey/Kramer post hoc test.)"
same,formalin concentration at which the maximum (plateau) of flinching was observed,[1]; range 0.5 to 5%,2.5%
C[C@]12N[C@H](Cc3ccccc31)c1ccccc12 [MK801],ED50 Phase II (Mean and 95% confidence intervals),"[2]; IT (intrathecal), Phase II (10–60 min), from % MPE dose effect curves",9.5 (87-1.0) μg
same,ED50 Phase IIA (Mean and 95% confidence intervals),"[2]; IT (intrathecal), Phase IIA (10–40 min), from % MPE dose effect curves",7.3 (43-1.2) μg
same,effect on the flinching response,[2]; intrathecal injection,potent dose dependent reduction in Phase II but not Phase I
same,effect on the flinching response,[2]; systemic (intraperitoneal) injection,potent dose dependent reduction in Phase II but not Phase I
same,flinching behavior at the lowest doses,"[2]; systemic delivery, lowest doses",apparent increase in flinching behavior at the lowest doses
"CN1CC[C@]23c4c5ccc(O)c4O[C@H]2[C@@H](O)C=C[C@H]3[C@H]1C5.O=S(=O)(O)O [Morphine, morphine sulfate]",effect on the flinching response,"[2]; intrathecal injection, sulfate",potent dose dependent reduction of all phases of the flinching response; also recorded: dose-dependent reduction in all phases of the response to formalin
same,effect on the flinching response,"[2]; systemic (intraperitoneal) injection, sulfate",potent dose dependent reduction of all phases of the flinching response; also recorded: dose-dependent reduction in all phases of the response to formalin
